This assay has as its target T1, human CARM1 (PRMT4) (Flag- and His-tagged) (Homo sapiens, UniProt Q86X55).
T1 construct: Flag-CARM1-His; made in house; host or cells: HEK 293F cells (BacMam baculovirus)
T1 sequence (Q86X55 1-585 isoform Q86X55-1): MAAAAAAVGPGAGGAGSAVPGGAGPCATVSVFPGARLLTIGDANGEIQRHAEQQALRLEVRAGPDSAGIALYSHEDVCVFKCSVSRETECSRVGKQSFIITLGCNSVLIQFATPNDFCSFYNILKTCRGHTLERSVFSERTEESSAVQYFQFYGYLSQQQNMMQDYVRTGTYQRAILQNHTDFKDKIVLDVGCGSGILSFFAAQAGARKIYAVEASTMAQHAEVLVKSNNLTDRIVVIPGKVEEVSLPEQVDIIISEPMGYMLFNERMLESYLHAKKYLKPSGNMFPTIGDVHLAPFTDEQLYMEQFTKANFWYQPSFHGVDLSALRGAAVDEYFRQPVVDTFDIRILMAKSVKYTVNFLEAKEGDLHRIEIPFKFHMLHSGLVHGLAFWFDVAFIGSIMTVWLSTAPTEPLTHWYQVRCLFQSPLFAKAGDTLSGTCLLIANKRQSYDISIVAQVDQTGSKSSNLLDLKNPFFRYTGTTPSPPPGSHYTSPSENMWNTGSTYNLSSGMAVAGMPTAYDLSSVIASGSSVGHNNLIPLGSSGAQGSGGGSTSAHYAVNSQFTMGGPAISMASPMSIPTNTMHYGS
The assay is described as follows: CARM1 Biochemical Assay (3H-SAM Flashplate, peptide substrate). Conditions: single experiment or average of multiple experiments. From the text:
General Materials. S-adenosylmethionine (SAM), S-adenosylhomocysteine (SAH), bicine, Tween20, dimethylsulfoxide (DMSO), bovine skin gelatin (BSG), sodium butyrate and Tris(2-carboxyethyl)phosphine hydrochloride solution (TCEP) were purchased from Sigma-Aldrich at the highest level of purity possible. ^3H-SAM was purchase from American Radiolabeled Chemicals with a specific activity of 80 Ci/mmol. 384-well streptavidin Flashplates were purchased from PerkinElmer.
Substrates. Peptide representative of human histone H3 residues 16-30 was synthesized with an N-terminal linker-affinity tag motif and a C-terminal amide cap by 21st Century Biochemicals. The peptide was purified by high-performance liquid chromatography (HPLC) to greater than 95% purity and confirmed by liquid chromatography mass spectrometry (LC-MS). The sequence was Biot-Ahx-[…]-amide and contained a monomethylated arginine at position 26 (SEQ ID NO.:14).
Molecular Biology: Human CARM1 (PRMT4) (NM_199141.1) transcript clone was amplified from an HEK 293 cDNA library, incorporating a flanking 5′ sequence encoding a FLAG tag ([…]) (SEQ ID NO.:6) fused directly to Ala 2 of CARM1 and 3′ sequence encoding a hexa His sequence ([…]) (SEQ ID NO.:15) fused directly to Ser 608. The gene sequence encoding isoform1 containing a deletion of amino acids 539-561 was amplified subsequently and subcloned into pFastBacMam (Viva Biotech).
Protein Expression. Recombinant baculovirus were generated according to Bac-to-Bac kit instructions (Life Technologies). […] Infections were carried out at 37° C. for 48 hours, harvested by centrifugation, and stored at −80° C. for purification.
Protein Purification. […] Column was washed with 500 mM NaCl in buffer A and Flag-CARM1-His was eluted with 200 ug/ml FLAG peptide in buffer A. Pooled fractions were dialyzed in 20 mM Tris, 150 mM NaCl, 5% glycerol and 1 mM DTT, pH 7.8. The purity of recovered protein was 94.
General Procedure for CARM1 Enzyme Assays on Peptide Substrates. The assays were all performed in a buffer consisting of 20 mM Bicine (pH=7.6), 1 mM TCEP, 0.005% BSG, and 0.002% Tween 20, prepared on the day of use. Compounds in 100% DMSO (1 ul) were spotted into a polypropylene 384-well V-bottom plates (Greiner) using a Platemate Plus outfitted with a 384-channel head (Thermo Scientific). DMSO (1 ul) was added to Columns 11, 12, 23, 24, rows A-H for the maximum signal control and 1 ul of SAH, a known product and inhibitor of CARM1, was added to columns 11, 12, 23, 24, rows I-P for the minimum signal control. A cocktail (40 ul) containing the CARM1 enzyme was added by Multidrop Combi (Thermo-Fisher). The compounds were allowed to incubate with CARM1 for 30 min at room temperature, then a cocktail (10 ul) containing ^3H-SAM and peptide was added to initiate the reaction (final volume=51 ul). The final concentrations of the components were as follows: CARM1 was 0.25 nM, ^3H-SAM was 30 nM, peptide was 250 nM, SAH in the minimum signal control wells was 1 mM, and the DMSO concentration was 2%. The assays were stopped by the addition of non-radiolabeled SAM (10 ul) to a final concentration of 300 uM, which dilutes the ^3H-SAM to a level where its incorporation into the peptide substrate is no longer detectable. 50 ul of the reaction in the 384-well polypropylene plate was then transferred to a 384-well Flashplate and the biotinylated peptides were allowed to bind to the streptavidin surface for at least 1 hour before being washed once with 0.1% Tween20 in a Biotek ELx405 plate washer. The plates were then read in a PerkinElmer TopCount plate reader to measure the quantity of ^3H-labeled peptide bound to the Flashplate surface, measured as disintegrations per minute (dpm) or alternatively, referred to as counts per minute (cpm).
Where dpm=disintegrations per minute, cmpd=signal in assay well, and min and max are the respective minimum and maximum signal controls. […]

Consider one molecule from patent US11512053B2, “Arginine methyltransferase inhibitors and uses thereof” (priority 2013, dated 2022).

In general, IC50 refers to the point on the concentration scale where inhibition reaches its midpoint. Low readings indicate greater potency in that assay, high ones weaker potency in that assay. As for `CNCCN(C)Cc1c[nH]nc1C#Cc1ccccc1` [Compound 3], the IC50 was found to be 1230 nM.
